In patent US20220096468A1 (priority 2018, published 2022):
Several values for one entry are separate records, joined by “and”; a condition that tells them apart may be missing. Identical values can stand only once. Like-named read-outs stand apart in the source and are kept apart here. Marks after values point to notes of the source that are not given here.

Assays:
[1] = biological target: RdRp of the influenza virus (replicon activity) (Influenza A virus, UniProt P03431); experiment: Influenza virus RdRp replicon reporter (Luc) assay in transduced 293T cells; format: cell-based, Influenza A/PR/8/34 (H1N1); settings: for inhibition at 10 µM: read-out: Replicon inhibiting percentage; for IC50: read-out: T-705 50% inhibitory concentration
293T cells = experiment: Amount of intracellular T-705RTP in 293T cells by LC/MS/MS; format: cell-based, human; settings: 293T cells cultured 24 hours with T-705 and 6-mercaptopurine; FIG. 1
Method: As described above, the pyrazine derivative or a salt thereof undergoes ribosyl phosphorylation in a cell. […] In order to examine whether or not the effect of 6-mercaptopurine to reinforce the activity of T-705, which was shown in Test Example 1, is caused by a change in the amount of T-705RTP, the amount of T-705RTP in 293T cells was measured under the treatment with 6-mercaptopurine.
293T cells (5×10^5 cells) seeded in each well of a 6-well plate were cultured with a vehicle (0.3% DMSO) or with 6-mercaptopurine, T-705, or the two drugs in various concentrations, under conditions of 5% CO2 at 37° C. for 24 hours.
After completion of the culture, the reaction mixture was washed with 2 ml of PBS, and 300 μl of trypsin was then added thereto. The obtained mixture was left at rest at 37° C. for 5 minutes, and the cells were then removed. Subsequently, 400 μl of a trypsin inhibitor was added and suspended into the cells, and the cell suspension was then recovered in a 1.5-ml tube. The cell suspension was centrifuged at 1,000 rpm at 4° C. for 2 minutes (MX-301, TOMY), and 500 μl of a supernatant was then removed. […]
The measurement of the number of cells and an LC/MS/MS analysis were carried out, and the amount of T-705RTP in each sample was then measured. […]

[2] = system: influenza virus (PR/8(H1N1)); experiment: microbe, parasite or virus in culture; format: cell-based; settings: for IC50: unidentified influenza virus, MDCK, MDCK cells
[3] = system: influenza virus (PR/8(H1N1)); format: cell-based
Punta Toro virus = format: cell-based
[4] = HEK-293T, T-705 10 μM, antimetabolite 0.08 μM
[5] = HEK-293T, T-705 10 μM, antimetabolite 0.4 μM
[6] = HEK-293T, T-705 10 μM, antimetabolite 2.0 μM
[7] = HEK-293T, T-705 10 μM, antimetabolite 10.0 μM
[8] = T-705 0 μM, antimetabolite 0.08 μM
[9] = T-705 0 μM, antimetabolite 0.4 μM
[10] = T-705 0 μM, antimetabolite 2.0 μM
[11] = T-705 0 μM, antimetabolite 10.0 μM
[12] = HEK-293T, single agent, without T-705, read-out: replicon inhibiting percentage

Sc1ncnc2nc[nH]c12 [6-Mercaptopurine, 6-mercaptopurine]
inhibition at 10 µM [1, 4]: 1.8%
inhibition at 10 µM [1, 5]: 3.7%
inhibition at 10 µM [1, 6]: 17%
inhibition at 10 µM [1, 7]: 38%
inhibition at 200 µM ([1]; HEK-293T, single agent, <200 μM, without T-705, read-out: replicon inhibiting percentage): < 50%
Replicon inhibiting percentage [1, 8]: −1.1%
Replicon inhibiting percentage [1, 9]: 1.5%
Replicon inhibiting percentage [1, 10]: 2.7%
Replicon inhibiting percentage [1, 11]: 8.2%
amount of T-705RTP in the cells after the treatment of T-705 (293T cells): increased
CPE inhibitory effects ([2]; single agent, 10 μM): did not exhibit CPE inhibitory effects

Cn1cnc([N+](=O)[O-])c1Sc1ncnc2nc[nH]c12 [Azathioprine, azathioprine]
inhibition at 10 µM [1, 4]: 3.3%
inhibition at 10 µM [1, 5]: 1.3%
inhibition at 10 µM [1, 6]: 5.9%
inhibition at 10 µM [1, 7]: 26%
Replicon inhibiting percentage [1, 8]: 3.1%
Replicon inhibiting percentage [1, 9]: −6.1%
Replicon inhibiting percentage [1, 10]: 3.4%
Replicon inhibiting percentage [1, 11]: 5.8%

CN(Cc1cnc2nc(N)nc(N)c2n1)c1ccc(C(=O)N[C@@H](CCC(=O)O)C(=O)O)cc1 [Methotrexate, methotrexate]
inhibition at 10 µM [1, 4]: 11%
inhibition at 10 µM [1, 5]: 36%
inhibition at 10 µM [1, 6]: 34%
inhibition at 10 µM [1, 7]: 37%
inhibition at 20 µM [1, 12]: < 50%
Replicon inhibiting percentage [1, 8]: 1.3%
Replicon inhibiting percentage [1, 9]: 18%
Replicon inhibiting percentage [1, 10]: 20%
Replicon inhibiting percentage [1, 11]: 19%

C#CCC(Cc1cnc2nc(N)nc(N)c2n1)c1ccc(C(=O)N[C@@H](CCC(=O)O)C(=O)O)cc1 (some centres unmarked) [Pralatrexate, pralatrexate]
inhibition at 10 µM [1, 4]: 33%
inhibition at 10 µM [1, 5]: 33%
inhibition at 10 µM [1, 6]: 33%
inhibition at 10 µM [1, 7]: 35%
inhibition at 20 µM [1, 12]: < 50%
Replicon inhibiting percentage [1, 8]: 24%
Replicon inhibiting percentage [1, 9]: 23%
Replicon inhibiting percentage [1, 10]: 2%
Replicon inhibiting percentage [1, 11]: 23%

NC(=O)c1ncn([C@@H]2O[C@H](CO)[C@@H](O)[C@H]2O)n1 [Ribavirin]
minimum drug concentration which exhibits complete CPE suppression effect ([3]; used alone): 30 µM

NC(=O)c1nc(F)cnc1O [T-705, 6-Fluoro-3-hydroxy-2-pyrazinecarboxamide]
IC50 ([1]; 6-Mercaptopurine concentration 0 μM): 310 µM
IC50 ([1]; 6-Mercaptopurine concentration 0.03 μM): 303 µM
IC50 ([1]; 6-Mercaptopurine concentration 0.09 μM): 275 µM
IC50 ([1]; 6-Mercaptopurine concentration 0.27 μM): 219 µM
IC50 ([1]; 6-Mercaptopurine concentration 0.82 μM): 163 µM
IC50 ([1]; 6-Mercaptopurine concentration 2.5 μM): 67 µM
IC50 ([1]; 6-Mercaptopurine concentration 7.4 μM): 16 µM
IC50 ([1]; 6-Mercaptopurine concentration 22 μM): 2.3 µM
IC50 ([1]; 6-Mercaptopurine concentration 67 μM): 5.1 µM
IC50 ([1]; 6-Mercaptopurine concentration 200 μM): 23 µM
IC50 ([1]; Methotrexate concentration 0 μM): 314 µM
IC50 ([1]; Methotrexate concentration 0.08 μM): 46 µM
IC50 ([1]; Methotrexate concentration 0.16 μM): 43 µM
IC50 ([1]; Methotrexate concentration 0.31 μM): 41 µM
IC50 ([1]; Methotrexate concentration 0.63 μM): 47 µM
IC50 ([1]; Methotrexate concentration 1.25 μM): 40 µM
IC50 ([1]; Methotrexate concentration 2.5 μM): 38 µM
IC50 ([1]; Methotrexate concentration 5 μM): 39 µM
IC50 ([1]; Methotrexate concentration 10 μM): 28 µM
IC50 ([1]; Methotrexate concentration 20 μM): 30 µM
IC50 ([1]; Pralatrexate concentration 0 μM): 304 µM
IC50 ([1]; Pralatrexate concentration 0.08 μM): 32 µM
IC50 ([1]; Pralatrexate concentration 0.16 μM): 31 µM
IC50 ([1]; Pralatrexate concentration 0.31 μM): 25 µM
IC50 ([1]; Pralatrexate concentration 0.63 μM): 29 µM
IC50 ([1]; Pralatrexate concentration 1.25 μM): 18 µM
IC50 ([1]; Pralatrexate concentration 2.5 μM): 24 µM
IC50 ([1]; Pralatrexate concentration 5 μM): 25 µM
IC50 ([1]; Pralatrexate concentration 10 μM): 22 µM
IC50 ([1]; Pralatrexate concentration 20 μM): 23 µM
Replicon inhibiting percentage ([1]; T-705 10 μM, antimetabolite 0 μM (T-705 alone)): 0.58% and 2.2% and −1.8% and −2.3% and −7.8%
LogTCID50 value that shows the effect of reducing the virus amount with respect to the infection control (Punta Toro virus): 1.0*
minimum drug concentration which exhibits complete CPE suppression effect ([3]; 6-mercaptopurine (10 μM) added): 0.3 µM
minimum drug concentration which exhibits complete CPE suppression effect ([3]; 6-mercaptopurine (10 μM) and Ribavirin (3 μM) added): 0.1 µM
minimum drug concentration which exhibits complete CPE suppression effect ([3]; used alone): 3 µM
IC50 ([2]; read-out: T-705 50% concentration (50% inhibitory concentration of T-705), 6-Mercaptopurine concentration 0 μM): 1.97 µM
IC50 ([2]; read-out: T-705 50% concentration (50% inhibitory concentration of T-705), 6-Mercaptopurine concentration 0.1 μM): 1.83 µM
IC50 ([2]; read-out: T-705 50% concentration (50% inhibitory concentration of T-705), 6-Mercaptopurine concentration 0.3 μM): 1.32 µM
IC50 ([2]; read-out: T-705 50% concentration (50% inhibitory concentration of T-705), 6-Mercaptopurine concentration 1 μM): 0.77 µM
IC50 ([2]; read-out: T-705 50% concentration (50% inhibitory concentration of T-705), 6-Mercaptopurine concentration 3 μM): 0.7 µM
IC50 ([2]; read-out: T-705 50% concentration (50% inhibitory concentration of T-705), 6-Mercaptopurine concentration 10 μM): 0.38 µM

NC(=O)c1nccnc1O [T-1105, 3-hydroxy-pyrazinecarboxamide]
LogTCID50 value that shows the effect of reducing the virus amount with respect to the infection control (Punta Toro virus): 0.0

Cn1c(=O)c2[nH]cnc2n(C)c1=O [Theophylline, theophylline]
LogTCID50 value that shows the effect of reducing the virus amount with respect to the infection control (Punta Toro virus): excellent effect of reducing the virus amount

Nc1nc2nc[nH]c2c(=S)[nH]1 [Thioguanine]
inhibition at 10 µM [1, 4]: -1.2%
inhibition at 10 µM [1, 6]: 14%
inhibition at 10 µM [1, 7]: 23%
Replicon inhibiting percentage [1, 8]: −4.8%
Replicon inhibiting percentage [1, 9]: −5.4%
Replicon inhibiting percentage [1, 10]: −3.7%
Replicon inhibiting percentage [1, 11]: 12%

NC(=O)c1csc([C@@H]2O[C@H](CO)[C@@H](O)[C@H]2O)n1 [Tiazofurin, tiazofurin]
LogTCID50 value that shows the effect of reducing the virus amount with respect to the infection control (Punta Toro virus): excellent effect of reducing the virus amount
